Measurements published in ChEMBL document CHEMBL5291721, “A preclinical secondary pharmacology resource illuminates target-adverse drug reaction associations of marketed drugs” (Nat Commun, 2023).

Legend:
[1] = biological target: T1, Androgen receptor (Rattus norvegicus, UniProt P15207); format: functional
T1 sequence (P15207 whole entry): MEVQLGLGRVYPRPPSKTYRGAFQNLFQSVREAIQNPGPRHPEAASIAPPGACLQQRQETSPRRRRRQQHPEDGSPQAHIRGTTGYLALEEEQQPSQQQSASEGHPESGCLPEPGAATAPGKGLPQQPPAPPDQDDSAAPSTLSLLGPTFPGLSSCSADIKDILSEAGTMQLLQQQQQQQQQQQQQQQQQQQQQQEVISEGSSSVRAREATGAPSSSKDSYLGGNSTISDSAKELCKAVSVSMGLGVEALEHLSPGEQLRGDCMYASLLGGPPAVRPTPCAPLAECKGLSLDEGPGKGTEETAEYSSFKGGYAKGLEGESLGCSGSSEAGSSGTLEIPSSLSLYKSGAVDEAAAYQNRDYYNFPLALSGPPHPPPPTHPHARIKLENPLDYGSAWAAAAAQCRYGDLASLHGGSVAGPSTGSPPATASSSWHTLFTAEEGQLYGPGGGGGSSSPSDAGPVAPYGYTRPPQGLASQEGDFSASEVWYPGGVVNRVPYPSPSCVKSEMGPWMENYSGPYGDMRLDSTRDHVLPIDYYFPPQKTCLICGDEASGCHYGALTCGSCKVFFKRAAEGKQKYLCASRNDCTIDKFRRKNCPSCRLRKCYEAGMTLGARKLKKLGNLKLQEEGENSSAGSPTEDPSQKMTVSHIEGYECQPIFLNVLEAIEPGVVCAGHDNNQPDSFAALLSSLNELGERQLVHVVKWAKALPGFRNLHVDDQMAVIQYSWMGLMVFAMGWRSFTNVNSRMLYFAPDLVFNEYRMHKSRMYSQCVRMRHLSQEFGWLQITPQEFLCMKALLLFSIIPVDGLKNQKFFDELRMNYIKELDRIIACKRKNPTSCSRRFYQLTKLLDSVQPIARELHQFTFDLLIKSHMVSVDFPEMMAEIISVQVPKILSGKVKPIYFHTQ

[2] = biological target: T2, B1 bradykinin receptor (Homo sapiens, UniProt P46663)
T2 sequence (P46663 whole entry): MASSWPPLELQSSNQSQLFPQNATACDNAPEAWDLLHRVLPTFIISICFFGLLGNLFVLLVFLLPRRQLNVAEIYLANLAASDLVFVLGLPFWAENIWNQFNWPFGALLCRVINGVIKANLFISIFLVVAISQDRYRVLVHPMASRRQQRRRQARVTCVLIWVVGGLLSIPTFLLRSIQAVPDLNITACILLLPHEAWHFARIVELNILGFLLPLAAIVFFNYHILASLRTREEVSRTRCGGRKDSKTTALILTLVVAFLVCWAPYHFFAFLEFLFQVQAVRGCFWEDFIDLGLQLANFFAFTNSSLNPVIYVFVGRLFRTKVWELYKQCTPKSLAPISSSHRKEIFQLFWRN

[3] = biological target: Glucagon receptor (Homo sapiens, UniProt P47871)
Glucagon receptor, sequence (P47871 whole entry): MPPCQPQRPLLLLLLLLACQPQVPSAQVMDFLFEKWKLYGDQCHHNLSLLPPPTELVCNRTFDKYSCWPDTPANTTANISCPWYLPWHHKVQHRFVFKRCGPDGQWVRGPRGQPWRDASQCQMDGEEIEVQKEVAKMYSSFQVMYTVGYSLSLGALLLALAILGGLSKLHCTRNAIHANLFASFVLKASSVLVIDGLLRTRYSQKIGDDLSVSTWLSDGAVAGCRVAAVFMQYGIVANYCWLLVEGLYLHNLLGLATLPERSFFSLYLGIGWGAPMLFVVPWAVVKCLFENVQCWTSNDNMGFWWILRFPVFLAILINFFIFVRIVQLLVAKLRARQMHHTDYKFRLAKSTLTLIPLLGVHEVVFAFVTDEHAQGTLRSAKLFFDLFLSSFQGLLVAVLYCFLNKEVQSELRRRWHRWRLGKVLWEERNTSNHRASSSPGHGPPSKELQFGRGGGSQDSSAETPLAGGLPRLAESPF

[4] = biological target: 5-hydroxytryptamine receptor 2B (Homo sapiens, UniProt P41595)
5-hydroxytryptamine receptor 2B, sequence (P41595 whole entry): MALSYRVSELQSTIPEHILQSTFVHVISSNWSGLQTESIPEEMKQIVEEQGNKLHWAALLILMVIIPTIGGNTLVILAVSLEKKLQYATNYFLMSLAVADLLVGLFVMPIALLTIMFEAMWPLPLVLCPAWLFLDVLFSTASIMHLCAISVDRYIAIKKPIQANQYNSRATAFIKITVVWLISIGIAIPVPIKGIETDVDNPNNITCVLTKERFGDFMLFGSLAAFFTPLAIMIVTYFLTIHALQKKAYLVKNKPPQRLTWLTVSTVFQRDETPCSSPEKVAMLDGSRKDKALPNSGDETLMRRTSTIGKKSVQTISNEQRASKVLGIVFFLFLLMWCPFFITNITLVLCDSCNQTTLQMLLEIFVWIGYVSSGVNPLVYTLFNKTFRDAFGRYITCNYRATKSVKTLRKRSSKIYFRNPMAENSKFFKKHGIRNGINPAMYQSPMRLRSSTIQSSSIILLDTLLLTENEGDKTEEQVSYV

[5] = biological target: T3, Progesterone receptor (Homo sapiens, UniProt P06401)
T3 sequence (P06401 whole entry): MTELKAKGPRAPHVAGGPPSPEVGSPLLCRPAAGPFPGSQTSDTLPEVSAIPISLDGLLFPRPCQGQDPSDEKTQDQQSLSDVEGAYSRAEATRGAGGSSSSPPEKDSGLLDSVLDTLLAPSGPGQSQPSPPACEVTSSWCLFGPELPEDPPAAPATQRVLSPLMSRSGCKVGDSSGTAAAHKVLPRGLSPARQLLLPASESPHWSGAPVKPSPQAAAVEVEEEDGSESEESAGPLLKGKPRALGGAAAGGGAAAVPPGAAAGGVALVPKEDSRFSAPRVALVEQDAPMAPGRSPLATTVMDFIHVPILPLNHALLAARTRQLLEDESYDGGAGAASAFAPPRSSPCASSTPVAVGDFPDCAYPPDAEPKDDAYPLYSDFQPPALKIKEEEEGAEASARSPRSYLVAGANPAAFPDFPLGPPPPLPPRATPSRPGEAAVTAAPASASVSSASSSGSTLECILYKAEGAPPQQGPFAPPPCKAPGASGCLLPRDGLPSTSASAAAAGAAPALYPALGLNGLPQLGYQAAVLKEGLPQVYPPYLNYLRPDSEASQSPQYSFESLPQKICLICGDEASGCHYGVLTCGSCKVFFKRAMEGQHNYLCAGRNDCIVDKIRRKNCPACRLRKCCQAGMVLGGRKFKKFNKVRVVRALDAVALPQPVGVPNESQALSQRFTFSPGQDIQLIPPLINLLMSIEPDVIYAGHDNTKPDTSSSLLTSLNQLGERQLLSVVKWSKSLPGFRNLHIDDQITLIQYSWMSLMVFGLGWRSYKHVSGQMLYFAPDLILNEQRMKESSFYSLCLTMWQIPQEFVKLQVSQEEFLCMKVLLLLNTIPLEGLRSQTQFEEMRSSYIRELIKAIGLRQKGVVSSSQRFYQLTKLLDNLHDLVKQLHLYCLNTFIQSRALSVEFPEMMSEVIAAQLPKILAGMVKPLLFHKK

[6] = biological target: T4, 5-hydroxytryptamine receptor 1A (Homo sapiens, UniProt P08908)
T4 sequence (P08908 whole entry): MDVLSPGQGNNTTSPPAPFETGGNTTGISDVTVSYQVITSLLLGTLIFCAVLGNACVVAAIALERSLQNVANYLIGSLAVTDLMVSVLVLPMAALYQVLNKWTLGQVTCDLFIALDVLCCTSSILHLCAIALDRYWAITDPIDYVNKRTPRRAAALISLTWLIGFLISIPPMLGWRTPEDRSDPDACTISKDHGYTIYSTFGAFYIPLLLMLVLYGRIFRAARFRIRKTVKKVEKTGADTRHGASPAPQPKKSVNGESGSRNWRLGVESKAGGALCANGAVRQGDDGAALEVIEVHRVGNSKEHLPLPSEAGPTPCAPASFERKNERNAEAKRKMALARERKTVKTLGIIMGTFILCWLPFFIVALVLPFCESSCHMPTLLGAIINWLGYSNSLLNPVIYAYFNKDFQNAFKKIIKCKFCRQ

[7] = biological target: 5-hydroxytryptamine receptor 2A (Homo sapiens, UniProt P28223)
5-hydroxytryptamine receptor 2A, sequence (P28223 whole entry): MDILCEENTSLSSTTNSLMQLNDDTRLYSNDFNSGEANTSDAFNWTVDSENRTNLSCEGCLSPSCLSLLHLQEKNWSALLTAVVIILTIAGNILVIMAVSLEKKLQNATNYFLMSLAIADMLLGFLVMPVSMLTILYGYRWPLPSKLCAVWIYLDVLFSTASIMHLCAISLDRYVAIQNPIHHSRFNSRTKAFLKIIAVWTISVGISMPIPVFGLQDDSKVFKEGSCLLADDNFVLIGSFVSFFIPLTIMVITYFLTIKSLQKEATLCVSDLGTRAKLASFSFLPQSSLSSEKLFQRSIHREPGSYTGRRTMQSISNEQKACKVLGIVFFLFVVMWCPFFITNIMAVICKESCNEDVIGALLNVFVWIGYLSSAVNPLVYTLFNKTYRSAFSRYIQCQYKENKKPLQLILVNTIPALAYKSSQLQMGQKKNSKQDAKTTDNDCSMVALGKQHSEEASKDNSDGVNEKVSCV
Note: assay procedure not described here.

`CCCCCN(C)CCC(O)(P(=O)(O)O)P(=O)(O)O` [IBANDRONIC ACID] was tested, and the AC50 [1] was > 30 µM, the AC50 [2] was > 30 µM and the AC50 [3] was > 30 µM. For the same compound, the AC50 [4] was > 10 µM, the AC50 [5] was > 30 µM and the AC50 [6] was > 10 µM. For the same compound, the AC50 [7] was > 10 µM.
